Here are results for 3 compounds from ChEMBL document CHEMBL1250522 (Bioorg Med Chem, 2010).

Assay [1] can be described thus: Cytotoxicity against human multidrug-resistant LCC-6 cells after 72 hrs by SRB assay. Conditions: LCC-6, 72 h.
Assay [2] is described as follows: Cytotoxicity against human NCI/ADR cells after 72 hrs by SRB assay. To be noted: NCI/ADR-RES. A general note: In SRB staining, fixed cells bind dye roughly in proportion to their protein.
Another assay concerns A2780. The assay can be described thus: Cytotoxicity against human A2780 cells after 72 hrs by SRB assay. The format is functional, cell-based. Conditions: A2780, 72 h.
The next assay relates to MCF7. Nature of the assay: Cytotoxicity against human MCF7 cells after 72 hrs by SRB assay. The format is functional, cell-based. Conditions: MCF7, 72 h.
Assay [3] is described as follows: Cytotoxicity against human wild type LCC-6 cells after 72 hrs by SRB assay. To be noted: LCC-6, 72 h.
The subject of a further assay is CFPAC-1. Nature of the assay: Cytotoxicity against human CFPAC-1 cells after 72 hrs by SRB assay. The format is functional, cell-based. To be noted: CFPAC-1, 72 h.

The structures appear in SMILES notation.

In the case of `CC(=O)OCc1cccc2c1[C@H](OC(=O)c1ccccc1)[C@H]1C[C@H](OC(=O)[C@H](O)[C@@H](NC(=O)c3ccccc3)c3ccccc3)CN1C2=O`, the half-inhibitory concentration (IC50) in assay [1] was more than 100 µM; in assay [2], more than 100 µM; in the assay on A2780, 7.8 µM; with MCF7, 39.6 µM; in assay [3] it was 36.3 µM; with CFPAC-1, more than 100 µM.

On to `CC(=O)OCc1cccc2c1[C@H](OC(=O)c1ccccc1)[C@H]1C[C@H](OC(=O)[C@H](O)[C@@H](NC(=O)c3ccccc3)c3ccccc3)CN1C(=O)C2`, for which the IC50 in assay [1] turned out to be 16.8 µM; in assay [2], 41.5 µM; in the assay on A2780, 3.81 µM; in the assay with MCF7 it was 8.31 µM; in assay [3], 4.93 µM; in the assay on CFPAC-1, 6.16 µM.

On to `O=C1CC/C=C\COc2ccccc2[C@H](NC(=O)c2ccccc2)[C@@H](O)C(=O)O[C@H]2C[C@@H]3[C@@H](OC(=O)c4ccccc4)c4c(cccc4C(=O)N3C2)CO1`, for which the IC50 was more than 100 µM in assay [1]; more than 100 µM in assay [2]; 14.8 µM in the assay on A2780; more than 100 µM in the assay on MCF7; more than 100 µM in assay [3]; more than 100 µM with CFPAC-1.

In general, IC50 refers to the concentration needed to halve the response being measured.
